Columns and labels:
MMP1 = MMP1 immunostaining on human skin explants after IR-A irradiation; type: cell-based
Procedure: (§1) The product tested is a solution of 2% DHA in water. This was done to avoid formulation effects of auxiliary ingredients.
(§2) Human skin explants were prepared on an abdominoplasty coming from a person (Fitzpatrick skin phototype II-Ill). The explants were kept in survival in BEM culture medium (BIO-EC's Explants Medium) at 37° C. in a humid, 5%-CO2 atmosphere.
(§3) On day 0 (D0), day 3 (D3) and day 4 (D4; 3 hours before IR irradiation), day 5 (D5) and day 6 (D6), the product was applied topically followed by 10 minutes of drying. […] The culture medium was half renewed (1 ml/well) on day 3 and day 5. Irradiation of the explants were done using an infrared lamp (Dr FISCHER 1000 W, 235V, 2500K, 760-3000 nm), for 5040 s (720 J/cm^2). Water filter and IR760 filter were also used to have the following IR range of 700 nm to 1150 nm. The unirradiated batches were kept in HBSS (Hank's Balanced Saline Solution) in the dark. At the end of the irradiation, all the explants were put back in 2 ml of fresh BEM culture medium.
(§4) The explants temperature was measured before and after IR-A irradiation. To avoid temperature-driven side-effects, the explants temperature was maintained at 37° C. (max. 39° C.) by specially adapted refreshing system.
The immunostaining was performed using an automated slide processing system (Autostainer, Dako) and assessed by microscopical observation.

tropoelastin = assay: Tropoelastin immunostaining on human skin explants after IR-A irradiation; type: cell-based; settings: papillary dermis
Procedure: as §1, §2, §3, §4
The nuclei were counterstained by propidium iodide.
The immunostaining was assessed by microscopical observation.

O=C(CO)CO [DHA, 1,3-dihydroxy-2-propanone]
MMP-1 decrease versus irradiated blank, epidermis (MMP1; epidermis, IR-A irradiated, day 5, p<0.01): 65%
MMP1 in the epidermis (% surface) (MMP1; living epidermis, IR-A irradiated explant + product applied topically, day 5): 8.4 % surface
protection of the explants after irradiation to IR-A (tropoelastin) (tropoelastin; day 7): excellent protection
Tropoelastin levels after IR-A irradiation and DHA treatment versus blank untreated explant (tropoelastin; day 7, statistically not different (p>0.1)): comparable to those of blank untreated explant
